# How the values were obtained:
# Assay type in all cases: ADME, organism-based
# [1] = Plasma concentration in healthy subject (7 subjects) at 50 mg, po administered as single dose measured after 7 hrs by gas chromatography; conditions: human
# [2] = Plasma concentration in healthy subject (7 subjects) at 50 mg, po administered as single dose measured after 6 hrs by gas chromatography; conditions: human
# [3] = system: Homo sapiens; experiment: First order inter-compartment transfer rate constant from central to tissue compartment in healthy subject (7 subjects) at 50 mg, iv by three compartment open model; conditions: in vivo
# [4] = Plasma concentration in healthy subject (7 subjects) at 50 mg, po administered as single dose measured after 2 hrs by gas chromatography; conditions: human
# [5] = Plasma concentration in healthy subject (7 subjects) at 50 mg, po administered as single dose measured after 1.5 hrs by gas chromatography; conditions: human
# [6] = Tmax in healthy subject (7 subjects) at 50 mg, po administered as single dose; conditions: human, in vivo
# [7] = Oral bioavailability in healthy subject (7 subjects) at 50 mg administered as single dose; conditions: human, in vivo
# [8] = Cmax in healthy subject (7 subjects) at 50 mg, po administered as single dose; design: dose 50 mg, route oral; conditions: human, in vivo
# [9] = Plasma concentration in healthy subject (7 subjects) at 50 mg, po administered as single dose measured after 6.5 hrs by gas chromatography; conditions: human
# [10] = system: Homo sapiens; experiment: Tlag in healthy subject (7 subjects) at 50 mg, po administered as single dose; conditions: in vivo
# [11] = Plasma concentration in healthy subject (7 subjects) at 50 mg, po administered as single dose measured after 1 hr by gas chromatography; conditions: human
# [12] = system: Homo sapiens; experiment: Fast disposition half life in healthy subject (7 subjects) at 50 mg, iv by three compartment open model; conditions: in vivo
# [13] = Total volume of distribution in healthy subject (7 subjects) at 50 mg, iv by three compartment open model; conditions: human, in vivo
# [14] = system: Homo sapiens; experiment: First order inter-compartment transfer rate constant from tissue to central compartment in healthy subject (7 subjects) at 50 mg, iv by three compartment open model; conditions: in vivo
# [15] = Plasma concentration in healthy subject (7 subjects) at 50 mg, po administered as single dose measured after 4.5 hrs by gas chromatography; conditions: human
# [16] = AUC (0 to infinity) in healthy subject (7 subjects) at 50 mg, iv by three compartment open model; design: dose 50 mg, route intravenous, time infinity; conditions: human, in vivo
# [17] = AUC (0 to infinity) in healthy subject (7 subjects) at 50 mg, po administered as single dose; design: dose 50 mg, route oral, time infinity; conditions: human, in vivo
# [18] = Terminal half life in healthy subject (7 subjects) at 50 mg, po administered as single dose; conditions: human, in vivo, read-out: beta t1/2 (converted)
# [19] = Plasma concentration in healthy subject (7 subjects) at 50 mg, po administered as single dose measured after 3 hrs by gas chromatography; conditions: human
# [20] = Plasma concentration in healthy subject (7 subjects) at 50 mg, po administered as single dose measured after 8 hrs by gas chromatography; conditions: human
# [21] = Elimination rate constant in healthy subject (7 subjects) at 50 mg, po administered as single dose; conditions: human, in vivo
# [22] = Plasma concentration in healthy subject (7 subjects) at 50 mg, po administered as single dose measured after 4 hrs by gas chromatography; conditions: human
# [23] = Plasma concentration in healthy subject (7 subjects) at 50 mg, po administered as single dose measured after 3.5 hrs by gas chromatography; conditions: human
# [24] = Plasma clearance in healthy subject (7 subjects) at 50 mg, iv by three compartment open model; conditions: human
# [25] = Elimination rate constant in healthy subject (7 subjects) at 50 mg, iv by three compartment open model; conditions: human, in vivo
# [26] = Plasma concentration in healthy subject (7 subjects) at 50 mg, po administered as single dose measured after 9 hrs by gas chromatography; conditions: human
# [27] = system: Homo sapiens; experiment: First order inter-compartment transfer rate constant from deep tissue to central compartment in healthy subject (7 subjects) at 50 mg, iv by three compartment open model; conditions: in vivo
# [28] = Plasma concentration in healthy subject (7 subjects) at 50 mg, po administered as single dose measured after 5.5 hrs by gas chromatography; conditions: human
# [29] = Plasma concentration in healthy subject (7 subjects) at 50 mg, po administered as single dose measured after 2.5 hrs by gas chromatography; conditions: human
# [30] = Slow disposition half life in healthy subject (7 subjects) at 50 mg, iv by three compartment open model; conditions: human, in vivo, read-out: alphat1/2 (converted)
# [31] = Terminal half life in healthy subject (7 subjects) at 50 mg, iv by three compartment open model; conditions: human, in vivo, read-out: beta t1/2 (converted)
# [32] = system: Homo sapiens; experiment: First order inter-compartment transfer rate constant from central to deep tissue compartment in healthy subject (7 subjects) at 50 mg, iv by three compartment open model; conditions: in vivo
# [33] = Plasma concentration in healthy subject (7 subjects) at 50 mg, po administered as single dose measured after 5 hrs by gas chromatography; conditions: human
# [34] = Cmax in healthy subject (7 subjects) at 50 mg, iv measured after 5 mins; design: dose 50 mg, route intravenous; conditions: human, in vivo
structure (smiles),measurement,setting,value
O=C([O-])Cc1ccccc1Nc1c(Cl)cccc1Cl.[Na+] [DICLOFENAC SODIUM],concentration at 7 h,[1],15 ng/mL
same,concentration at 6 h,[2],35 ng/mL
same,K,[3],5.5 h⁻¹
same,concentration at 2 h,[4],860 ng/mL
same,concentration at 1.5 h,[5],100 ng/mL
same,Tmax,[6],2.5 h
same,bioavailability,[7],54%
same,Cmax,[8],2000 ng/mL
same,concentration at 6.5 h,[9],25 ng/mL
same,Tlag,[10],1.9 h
same,concentration at 1 h,[11],200 ng/mL
same,t1/2,[12],3 min
same,Vd,[13],0.172 L/kg
same,K,[14],5.2 h⁻¹
same,concentration at 4.5 h,[15],215 ng/mL
same,AUC(0-inf),[16],3290 ng·h/mL
same,AUC(0-inf),[17],1670 ng·h/mL
same,half-life,[18],108 min
same,concentration at 3 h,[19],690 ng/mL
same,concentration at 8 h,[20],11 ng/mL
same,k el,[21],0.000183 s⁻¹
same,concentration at 4 h,[22],110 ng/mL
same,concentration at 3.5 h,[23],240 ng/mL
same,clearance,[24],263 mL/min
same,k el,[25],0.00236 s⁻¹
same,concentration at 9 h,[26],3 ng/mL
same,K,[27],0.8 h⁻¹
same,concentration at 5.5 h,[28],54 ng/mL
same,concentration at 2.5 h,[29],710 ng/mL
same,half-life,[30],15.6 min
same,half-life,[31],66 min
same,K,[32],2.6 h⁻¹
same,concentration at 5 h,[33],95 ng/mL
same,Cmax,[34],7800 ng/mL

# — ChEMBL document CHEMBL3785039, “The pharmacokinetics of diclofenac sodium following intravenous and oral administration” (Eur J Clin Pharmacol, 1979)
